Laboratory results reported in patent US20250018066A1, “Ophthalmic dye composition” (Vitreq B.V., priority 2016, published 2025).

Columns and labels:
[1] = Osmotic pressure contribution of density-increasing agent; assay type: physicochemical; conditions: in words
retina = assay: Staining of porcine retina with dye preparations, contrast quantified from photographs; conditions: in words; compared with prior art agents like PEG
Excerpt: The eyes were kept on ice until used.
The upper part of the eye, including the cornea, iris, and lens, was removed with an orbital section. The vitreous body was removed to get access to the retina. The retina was rinsed three times with phosphate-buffered saline (PBS). Dye solutions were applied to the retina for 30 seconds, and the retina was then washed three times with PBS.
As an example of the visual impression of the stained retina, photos were taken. For photographic recording of the result of the staining, the staining was limited by applying a glass tube of a diameter of 10 mm. Care was taken that no dye could reach the cellular layer of the retina. […]
As an example of quantification, the pictures in FIGS. 1A-J were quantified by measuring the optical densities (expressed as grey values on a scale from 0 (black) to 255 (white)) of a rectangular area within the stained portion of the retina and a rectangular area outside the stained portion as background (ensuring that no blood vessels where present in the rectangular areas), and calculating the ratio of the grey values of the background to that of the stain. […] Toxicity was measured in ARPE cells. […] Toxicity is expressed as percent reduction of cell viability in comparison to a control incubated with PBS instead of the dye solution.

Density of dye solutions = assay type: physicochemical
Procedure: (§1) Density and viscosity can be changed by the addition of diglycerol or a gadolinium complex or a combination of both. For sinking of the dye solution to the bottom of the eye, density is more important than viscosity; the latter reduces, however, possible mixing for solutions which sink slowly. The density of dye solutions can be increased from 1.003 grams per milliliter (at 25° C.) to 1.028, when 10 volume % of a 0.5 M solution of gadopentetate is added to a final concentration of gadopentetate of 0.05 M, and to 1.048 when 20 volume % of a 0.5 M solution of gadopentetate is added to a final concentration of 0.10 M. The resulting viscosities are 1.125 mPa·s and 1.258 mPa·s, respectively. For a 5% addition of named gadopentetate solution, a density of 1.016 gram per milliliter and a viscosity of 1.117 mPa·s is obtained.

[2] = Viscosity of dye solutions; assay type: physicochemical
Procedure: as §1

[3] = 10 volume % of 0.5 M solution added, final concentration 0.05 M
[4] = 20 volume % of 0.5 M solution added, final concentration 0.10 M

Row | Compound | osmotic pressure / osmotic activity [1] | effect of density agent on staining efficiency (retina) | density (Density of dye solutions; addition of 5 weight percent) [grams per milliliter] | viscosity ([2]; addition of 5 weight percent) [mPa·s] | osmotic pressure / osmotic activity ([1]; listed as DG) | density (Density of dye solutions; 5% addition of 0.5 M solution) [gram per milliliter] | density (Density of dye solutions; [3]) [grams per milliliter] | density (Density of dye solutions; [4]) [grams per milliliter] | viscosity ([2]; 5% addition of 0.5 M solution) [mPa·s] | viscosity [2, 3] [mPa·s] | viscosity [2, 4] [mPa·s]
1 | OCC(O)COCC(O)COCC(O)CO (stereo not drawn) [triglycerol] | without increasing osmotic pressure substantially | – | – | – | – | – | – | – | – | – | –
2 | OCC(O)COCC(O)CO (stereo not drawn) [diglycerol] | without increasing osmotic pressure substantially | does not decrease staining efficiency | 1.020 | 1.191 | not even osmotically active | – | – | – | – | – | –
3 | O=C([O-])CN(CCN(CC(=O)[O-])CC(=O)O)CCN(CC(=O)[O-])CC(=O)O.[Gd+3] [gadopentetate] | – | – | – | – | – | 1.016 | 1.028 | 1.048 | 1.117 | 1.125 | 1.258
